In brackets after ≈: the same amount, converted by molar mass. Where a SMILES comes first, the peptide text is derived from it.
Key:
S. aureus NCTC 10788 = format: cell-based, Staphylococcus aureus
Protocol: (§1) The inhibition of representative microorganisms by peptides was evaluated by the modified broth dilution technique. The microorganisms included Candida albicans (C. albicans, NCTC 10231), Enterococcus faecalis (E. faecalis, NCTC 12697), Staphylococcus aureus (S. aureus, NCTC 10788), Klebsiella pneumoniae (K. pneumoniae, ATCC 43816), Methicillin-resistant Staphylococcus aureus (MRSA, ATCC 12493), Pseudomonas aeruginosa (P. aeruginosa, ATCC 27853), and Escherichia coli (E. coli, NCTC 10418).
(§2) Firstly, the selected microorganism was incubated in conical flasks with 100 mL Mueller Hinton broth (MHB) overnight. Then, the bacterial solution was sub-cultured in 20 mL MHB until it reached the logarithmic growth phase. Meanwhile, the peptide solution was prepared. The peptide was dissolved into 128 × 10^2 μM solution with phosphate-buffered saline (PBS) and then double-diluted into 64, 32, 16, 8, 4, 2, and 1 × 10^2 μM. Each sample solution and positive control ([…] Norfloxacin) was added to 96-well plates and divided into five replicates, 1 μL per well. The blank control was 100 µL MHB, and the growth control was 100 µL bacterial solutions. When the optical density (OD) value corresponding to the microbial concentration reached the value (Gram-positive bacteria: 0.23; Gram-negative bacteria: 0.4; fungi: 0.15) in their logarithmic growth phase, the microorganisms were diluted to the required concentration with MHB (Gram-negative and Gram-positive bacteria: 5 × 10^5 CFU/mL; fungi: 1 × 10^6 CFU/mL).
(§3) The diluted bacterial solution was then added to the 96-well plate at 99 µL per well. The plate was incubated at 37 °C and observed the next day. The MIC was the corresponding lowest peptide concentration without microbial growth. The absorbance of the 96-well plate at 550 nm was measured by Synergy HT Microplate Spectrophotometer (Biotech, Minneapolis, MN, USA), and the obtained values were quantitatively analyzed by Prism 7 software. Subsequently, the concentrations corresponding to the clear solution were removed from the 96-well plate in 10 µL and dropped onto the solidified MHA. The Petri dishes with MHA were cultured overnight, observed and the minimum peptide concentration without colonies was MBC.

E. coli NCTC 10418 = format: cell-based, Escherichia coli
Protocol: as §1, §2, §3

C. albicans NCTC 10231 = format: cell-based, Candida albicans
Protocol: as §1, §2, §3

MRSA NCTC 12493 = format: cell-based, Methicillin-resistant Staphylococcus aureus
K. pneumoniae ATCC 43816 = format: cell-based, Klebsiella pneumoniae
Protocol: as §1, §2, §3

E. faecalis NCTC 12697 = format: cell-based, Enterococcus faecalis
Protocol: as §1, §2, §3

P. aeruginosa ATCC 27853 = format: cell-based, Pseudomonas aeruginosa
Protocol: as §1, §2, §3

[1] = tested on: S. aureus NCTC 10788 biofilm; format: cell-based, Staphylococcus aureus; details: NCTC 10788, 24 h
Protocol: (§4) As previously described, the MBIC and MBEC of the peptides against bacteria were determined. Staphylococcus aureus (S. aureus, NCTC 10788) and Escherichia coli (E. coli, NCTC 10418) was selected as representative strains. For the MBIC assay, the cultures were sub-cultured to their logarithmic growth phases. The diluted bacterial suspension was incubated with the peptide solution overnight in a 96-well plate. The resulting biofilm was washed with PBS solution, fixed with methanol, and dried. The biofilm was then stained with 0.1% (w/v) crystal violet, washed again with PBS, and dissolved in 30% acetic acid. The absorbance of the solution in each well at 595 nm was counted by the Synergy HT Microplate Spectrophotometer (Biotech, Minneapolis, MN, USA). Compared with the negative control, the lowest concentration that inhibits biofilm formation was MBIC. For the determination of MBEC, the diluted bacterial solution was incubated in the 96-well plate for 24 h, with 100 µL per well. Then, the biofilm was washed and re-incubated with 100 µL peptide-medium solution. After 24 h, the biofilm was again washed, stained, and dissolved as in the MBIC assay. Each well was detected at 595 nm by the same plate reader in MBIC. Compared with the negative control, the lowest concentration to eliminate biofilm was MBEC.

[2] = tested on: E. coli NCTC 10418 biofilm; format: cell-based, Escherichia coli; details: NCTC 10418, 24 h
Protocol: as §4

MIC (S. aureus NCTC 10788) [µM] | MIC (E. coli NCTC 10418) [µM] | MIC (C. albicans NCTC 10231) [µM] | MIC (MRSA NCTC 12493) [µM] | MIC (K. pneumoniae ATCC 43816) [µM] | MIC (E. faecalis NCTC 12697) [µM] | MIC (P. aeruginosa ATCC 27853) [µM] | Compound | MBC (S. aureus NCTC 10788) [µM] | MBC (E. coli NCTC 10418) [µM] | MBC (C. albicans NCTC 10231) [µM] | MBC (MRSA NCTC 12493) [µM] | MBC (K. pneumoniae ATCC 43816) [µM] | MBC (E. faecalis NCTC 12697) [µM] | MBC (P. aeruginosa ATCC 27853) [µM] | MBEC [1] | MBEC [2] | MBIC [2] | MBIC [1]
16 | 32 | 32 | 128 (≈ 192 µg/mL) | > 128 | 32 | > 128 | CC[C@H](C)[C@H](NC(=O)[C@H](C)NC(=O)CNC(=O)CNC(=O)[C@@H](NC(=O)[C@H](CC(C)C)NC(=O)[C@H](C)NC(=O)[C@H](CC(C)C)NC(=O)[C@H](C)NC(=O)[C@H](CC(C)C)NC(=O)[C@@H](N)Cc1ccccc1)[C@@H](C)CC)C(=O)N[C@@H](C)C(=O)N[C@@H](CCCCN)C(=O)N[C@@H](CC(C)C)C(=O)N[C@@H](CCCCN)C(N)=O [QUB-1498] (H-FLALALIGGAIAKLK-NH2) | 16 | > 128 | > 128 | > 128 | > 128 | 64 | > 128 | 128 µM | >128/>128 µM | >128/>128 µM | –
2 | 16 | 8 | 4 (≈ 6.28 µg/mL) | 32 | 8 | > 128 | CC[C@H](C)[C@H](NC(=O)[C@H](C)NC(=O)[C@H](CCCCN)NC(=O)CNC(=O)[C@@H](NC(=O)[C@H](CC(C)C)NC(=O)[C@H](C)NC(=O)[C@H](CC(C)C)NC(=O)[C@H](C)NC(=O)[C@H](CC(C)C)NC(=O)[C@@H](N)Cc1ccccc1)[C@@H](C)CC)C(=O)N[C@@H](C)C(=O)N[C@@H](CCCCN)C(=O)N[C@@H](CC(C)C)C(=O)N[C@@H](CCCCN)C(N)=O [QUB-1570] (H-FLALALIGKAIAKLK-NH2) | 8 | 32 | 8 | 8 (≈ 12.6 µg/mL) | 32 | 8 | > 128 | – | 64 µM | 32 µM | 4 µM
8 | 8 | 16 | 8 (≈ 12.9 µg/mL) | 128 | 16 | > 128 | CC[C@H](C)[C@H](NC(=O)[C@H](C)NC(=O)[C@H](CCCCN)NC(=O)[C@@H]1CCCN1C(=O)[C@@H](NC(=O)[C@H](CC(C)C)NC(=O)[C@H](C)NC(=O)[C@H](CC(C)C)NC(=O)[C@H](C)NC(=O)[C@H](CC(C)C)NC(=O)[C@@H](N)Cc1ccccc1)[C@@H](C)CC)C(=O)N[C@@H](C)C(=O)N[C@@H](CCCCN)C(=O)N[C@@H](CC(C)C)C(=O)N[C@@H](CCCCN)C(N)=O [QUB-1609] (H-FLALALIPKAIAKLK-NH2) | 32 | 64 | 32 | 16 (≈ 25.7 µg/mL) | > 128 | 64 | > 128 | 128 µM | 128 µM | 64 µM | 16 µM
32 | 128 | 64 | 64 (≈ 105 µg/mL) | > 128 | 128 | > 128 | CC[C@H](C)[C@H](NC(=O)[C@H](C)NC(=O)[C@H](CCC(=O)O)NC(=O)[C@H](CCC(N)=O)NC(=O)[C@@H](NC(=O)[C@H](CC(C)C)NC(=O)[C@H](CCCCN)NC(=O)CNC(=O)[C@H](C)NC(=O)[C@H](CC(C)C)NC(=O)[C@@H](N)Cc1ccccc1)[C@@H](C)CC)C(=O)N[C@@H](C)C(=O)N[C@@H](CCCCN)C(=O)N[C@@H](CC(C)C)C(=O)N[C@@H](CCCCN)C(N)=O [QUB-1643] (H-FLAGKLIQEAIAKLK-NH2) | 64 | > 128 | 128 | 128 (≈ 210 µg/mL) | > 128 | > 128 | > 128 | 128/>128 µM | >128/>128 µM | >128/>128 µM | 128/>128 µM
